Reference: patent US20250262212A1, “COMPOSITION FOR SUPPRESSING PROLIFERATION OF CANCER STEM CELLS” (Chemiteras, Inc., priority 2022, published 2025)

Test system: cancer stem cells (12037NS)
Experiment: Proliferation suppressive effect on cancer stem cells (survival rate, WST-8 / Cell Counting Kit-8)
Type: cell-based
Settings: for Survival Rate(%) of cancer stem cells: DMSO control = 100; for proliferation suppressive effect on cancer stem cells (in words): 10 μM, 3 days, verbal assessment
Protocol: The proliferation suppressive effect of the triazolohalopyrimidine compounds on cancer stem cells was evaluated as follows.
The proliferation suppressive effect of triazolohalopyrimidine compounds on cancer stem cells was evaluated using commercially available anticancer agents and known compounds known to have antitumor effect.
12037NS was used as cancer stem cells. 12037NS are the cells obtained by isolation and purification according to the method referred in Nature 432, No. 18, 396-401 (2004). 12037NS cells are susceptible to cytotoxicity by DMSO (dimethylsulfoxide) used for dilution of test compounds. Accordingly, DMSO was used as control.
Used cancer stem cells were 12037NS which are cultivated cancer stem cells. 12037NS are the cells obtained by isolation and purification according to the method referred in Nature 432, No. 18, 396-401 (2004).
Cancer stem cells (12037NS) were seededat 3.0×10^3 cells/well in a 96-well plate using DMEM (Dulbeco's Modified Eagle Medium).
Test compounds shown in Table 3 were diluted with DMSO and then further diluted with PBS (phosphate buffered saline) to prepare test solutions. The test solution was added to each well to become a final concentration of 10 μM. For controls, DMSO was added to the wells to become a final concentration of 0.1% (v/v).
After adding the test solution, the plate was incubated at 37° C. in a 5% CO2 environment for 3 days.
After incubation, water-soluble tetrazonium salt WST-8 (“Cell Counting Kit-8” coloring reagent; manufactured by Dojindo Laboratories) was added at 10 μL/well to each well and the plate was placed in a 37° C., 5% CO2 environment, and incubated for 2 hours.
The absorbance at 450 nm wavelength was measured for the culture solution in each well of the plate after incubation. WST-8 is reduced by intracellular dehydrogenase to produce water-soluble formazan. The number of living cells can be measured by measuring the absorbance of this formazan at 450 nm.
The survival rate of cancer stem cells was determined by comparing the measured number of living cells with the number of seeded cells.
In the same manner as in [Test Example 1], the survival rate of cancer stem cells was determined for the test compounds shown in Table 4. Triazolohalopyrimidine compound (I)g means 2-(4-hydroxyphenyl)-5-chloro-8-methyl[1.2.4]triazolo[1,5-c]pyrimidine.

[1] = Test Example 1, test compound 10 μM, 3 days incubation
[2] = Test Example 2, same manner as Test Example 1 (10 μM, 3 days)

Row | Structure (SMILES) | Survival Rate(%) of cancer stem cells [1] | proliferation suppressive effect on cancer stem cells (in words) | Survival Rate(%) of cancer stem cells [2]
1 | O=c1[nH]cc(F)c(=O)[nH]1 [5-Fluorouracil] | 80% |  | 
2 | Cc1cnc(Cl)n2nc(-c3ccc(Br)cc3)nc12 [Compound (I)d, 2-(4-bromophenyl)-5-chloro-8-methyl[1.2.4]triazolo[1,5-c]pyrimidine] |  | significantly superior to those of commercially available anticancer agents | 
3 | Cc1cnc(Cl)n2nc(-c3ccc(Cl)c(Cl)c3)nc12 [Compound (I)f, 2-(3,4-dichlorophenyl)-5-chloro-8-methyl[1.2.4]triazolo[1,5-c]pyrimidine] |  | significantly superior to those of commercially available anticancer agents | 
4 | Cc1cnc(Cl)n2nc(-c3ccc(O)cc3)nc12 [Compound (I)g, 2-(4-hydroxyphenyl)-5-chloro-8-methyl[1.2.4]triazolo[1,5-c]pyrimidine] |  |  | 45%
5 | Cn1nnc2c(C(N)=O)ncn2c1=O [Temozolomide] | 65% |  | 75%
